According to patent US11168072B2, “Crystal form of morpholino quinazoline compound, preparation method therefor and use thereof” (SHANGHAI YINGLI PHARMACEUTICAL CO., LTD, priority 2018, dated 2021):
Entries after “also recorded” stand apart in the source; their conditions may differ.

Assays:
Assay type in all cases: physicochemical
[1] = Stability under high temperature, high humidity, illumination (influencing factors); details: for stability under illumination conditions (conclusion): illumination 4500±500 Lux; for changes in the appearance: illumination, high temperature (60° C.) and high humidity (25° C., RH75%) for 10 days
Procedure: Appropriate amount of the samples of the crystal form I of the morpholino quinazoline compound represented by formula A were placed on culture dishes which were then left open under high temperature (40±2° C. and 60±2° C.), high humidity (25° C., RH75±5% and RH90±5%) and illumination (4500±500 Lux, 25° C.) conditions, respectively.
Appropriate amount of the samples of the amorphous form of the morpholino quinazoline compound represented by formula A and the samples of the crystal form II of the morpholino quinazoline compound represented by formula A were placed on culture dishes respectively, which were then left open under high temperature (60±2° C.), high humidity (25° C., RH75±5%) and illumination (4500±500 Lux, 25° C.) conditions, respectively.

[2] = Dynamic vapor sorption analysis (DVS); details: for increase by mass compared to the initial mass (DVS weight gain): relative humidity from 0% to 95%
Procedure: (§1) Dynamic vapor sorption analysis (DVS): about 10 mg of the sample was taken and dried for 60 minutes under a temperature set at 25° C. and a humidity of 0% RH, and then the moisture sorption characteristics of the sample when the humidity changed from 0% RH to 95% RH was tested, and the moisture desorption characteristics of the sample when the humidity changed from 95% RH to 0% RH was tested; the humidity change step was 5% RH; the value of the mass change rate dm/dt less than 0.002% was considered as balance equilibrium, the rate of mass change within 5 minutes less than 0.01%/minute was considered as the equilibrium standard in the testing process, and the maximum equilibrium time was 2 hours. The isothermal water adsorption/desorption characteristics under this test condition were determined and XRPD detection was performed on the samples after the DVS test.
as §1, with “About” for “Dynamic vapor sorption analysis (DVS): about”

[3] = Stability of crystal form in water and organic solvents at room temperature for 10 days (suspension, XRPD)
Procedure: About 20 mg of solid samples of the crystal form I of the morpholino quinazoline compound represented by formula A were weighed respectively and placed into vials, 1 mL of water or organic solvent was added to the vials respectively, and sonicated for 5 min to obtain suspensions. The suspensions were spun at room temperature for 10 days and the filtered wet samples were characterized by XRPD.

[4] = Stability in organic solvents with slurrying at high temperature for 18 hours (XRPD); details: slurried in ethanol, isopropanol and n-heptane at 80° C. for 18 hours
Procedure: To 5 g of the crystal form I of the morpholino quinazoline compound represented by formula A was added 10 g of ethanol, 10 g of isopropanol, and 10 g of n-heptane. The mixture was slurried at 80° C. for 18 hours, cooled to room temperature, filtered, and dried under vacuum at less than 85° C. for 16 hours to obtain about 4 g of sample.

[5] = high temperature (60° C.) and high humidity (25° C., RH75%)
[6] = illumination 4500 Lux ± 500 Lux, 25° C., 5 days
[7] = illumination 4500 Lux ± 500 Lux, 25° C., 10 days
[8] = illumination (4500±500 Lux, 25° C.)
[9] = illumination 4500 Lux ± 500 Lux, 25° C., 1 month

## COc1ncc(-c2nc(N3CCOCC3)nc3c(CN4CCC(C(C)(C)O)CC4)cc(F)cc23)cc1NS(C)(=O)=O [Amorphous form]
[1]; 0 day
  Content (%): 98.60%
  Total impurities (%): 1.32%
[1]; 25° C., RH 75 ± 5%, 5 days
  Total impurities (%): 1.37%
[1]; 25° C., RH 75 ± 5%, 10 days
  Total impurities (%): 1.31%
[1]; 60° C., 5 days
  Content (%): 98.43%
[1]; 60° C., 10 days
  Content (%): 98.48%
[1]; 60 ± 2° C., 5 days
  Total impurities (%): 1.54%
[1]; 60 ± 2° C., 10 days
  Total impurities (%): 1.46%
[1]; 75% RH (25° C.), 5 days
  Content (%): 98.51%
[1]; 75% RH (25° C.), 10 days
  Content (%): 98.62%
[1]; [5]
  change of total impurities content: increases slightly
[1]; [6]
  Content (%): 98.29%
  Total impurities (%): 1.68%
[1]; [7]
  Content (%): 97.80%
  Total impurities (%): 2.16%
[1]; 25° C.
  stability under illumination conditions (conclusion): unstable
[1]; [8]
  change of total impurities content: increases significantly
[1]
  changes in the appearance: no significant changes

## COc1ncc(-c2nc(N3CCOCC3)nc3c(CN4CCC(C(C)(C)O)CC4)cc(F)cc23)cc1NS(C)(=O)=O [Crystal form II]
[1]; 0 day
  Content (%): 96.65%
  Total impurities (%): 3.28%
[1]; 25° C., RH 75 ± 5%, 5 days
  Total impurities (%): 3.18%
[1]; 25° C., RH 75 ± 5%, 10 days
  Total impurities (%): 3.61%
[1]; 60° C., 5 days
  Content (%): 95.85%
[1]; 60° C., 10 days
  Content (%): 97.0%
[1]; 60 ± 2° C., 5 days
  Total impurities (%): 4.04%
[1]; 60 ± 2° C., 10 days
  Total impurities (%): 2.97%
[1]; 75% RH (25° C.), 5 days
  Content (%): 96.75%
[1]; 75% RH (25° C.), 10 days
  Content (%): 96.24%
[1]; [5]
  change of total impurities content: increases slightly
[1]; [6]
  Content (%): 96.26%
  Total impurities (%): 3.64%
[1]; [7]
  Content (%): 95.80%
  Total impurities (%): 4.14%
[1]; 25° C.
  stability under illumination conditions (conclusion): unstable
[1]; [8]
  change of total impurities content: increases significantly
[1]
  changes in the appearance: no significant changes
[2]; 25° C.
  increase by mass compared to the initial mass (DVS weight gain): 6.237%
[2]; 25° C., listed as crystal type II
  increase by mass compared to the initial mass (DVS weight gain): 6.237%
[2]; relative humidity from 0 to 95%
  weight gain of crystal form II relative to that of crystal form I: 18 times

## COc1ncc(-c2nc(N3CCOCC3)nc3c(CN4CCC(C(C)(C)O)CC4)cc(F)cc23)cc1NS(C)(=O)=O [Crystal form I]
[1]
  stability under high temperature, high humidity and illumination conditions (conclusion): good stability
[1]; 0 day
  Moisture (%): 0.07%
  Total impurities (%): 0.1%
[1]; 25° C., RH 75 ± 5%, 1 month
  Moisture (%): 0.1%
  Total impurities (%): 0.1%
[1]; 25° C., RH 75 ± 5%, 5 days
  Moisture (%): 0.1%
  Total impurities (%): 0.1%
[1]; 25° C., RH 75 ± 5%, 10 days
  Moisture (%): 0.2%
  Total impurities (%): 0.1%
[1]; 25° C., RH 90 ± 5%, 1 month
  Moisture (%): 0.1%
  Total impurities (%): 0.1%
[1]; 25° C., RH 90 ± 5%, 5 days
  Moisture (%): 0.2%
  Total impurities (%): 0.1%
[1]; 25° C., RH 90 ± 5%, 10 days
  Moisture (%): 0.2%
  Total impurities (%): 0.1%
[1]; 40 ± 2° C., 1 month
  Moisture (%): 0.1%
  Total impurities (%): 0.1%
[1]; 40 ± 2° C., 5 days
  Moisture (%): 0.1%
  Total impurities (%): 0.1%
[1]; 40 ± 2° C., 10 days
  Moisture (%): 0.2%
  Total impurities (%): 0.1%
[1]; 60 ± 2° C., 1 month
  Moisture (%): 0.1%
  Total impurities (%): 0.1%
[1]; 60 ± 2° C., 5 days
  Moisture (%): 0.2%
  Total impurities (%): 0.1%
[1]; 60 ± 2° C., 10 days
  Moisture (%): 0.2%
  Total impurities (%): 0.1%
[1]; [9]
  Moisture (%): 0.1%
  Total impurities (%): 0.2%
[1]; [6]
  Moisture (%): 0.1%
  Total impurities (%): 0.1%
[1]; [7]
  Moisture (%): 0.1%
  Total impurities (%): 0.1%
[3]; room temperature and high temperature
  stability in water and organic solvents (conclusion): good stability
[3]; suspension in water or organic solvents, room temperature, 10 days
  crystal form of filtered wet sample by XRPD: did not change
[2]
  hygroscopicity (conclusion): less hygroscopicity; also recorded: very low hygroscopicity
[2]; 25° C.
  increase by mass compared to the initial mass (DVS weight gain): 0.34%
[2]; relative humidity from 0 to 90%, 25° C.
  increase by mass compared to the initial mass (DVS): 0.23%
[4]
  X-ray powder diffraction pattern versus crystal form I of Example 1: consistent
